Measured values reported in ChEMBL document CHEMBL1127164, “Dihydropyridine KATP potassium channel openers” (Bioorg Med Chem Lett, 1993).
pIC50: −log10 of the molar value.

Tests used:
Assay type in all cases: functional
[1] = species on record: Cavia porcellus; assay: The compound was tested for […] activity against guinea pig detrusor (bladder) strip mildly depolarized with 15 mM KCl
[2] = species on record: Cavia porcellus; assay: The compound was tested for […] activity against guinea pig vascular tissue (portal vein) strip mildly depolarized with 15 mM KCl
[3] = species on record: Cavia porcellus; assay: Tested for percent increase of efflux rate constant of 50 uM of compound using guinea pig detrusor
[4] = species on record: Cavia porcellus; assay: The compound was tested for […] activity against guinea pig detrusor (bladder) strip contracted with 80 mM KCl

Row | pIC50 [1] | pIC50 [2] | pIC50 [4] | SMILES | Increase [3] [%]
1 | 6.38 |  |  | N#Cc1ccc(C2C3=C(O)CCCC3=NC3=C2C(=O)CCC3)cc1C(F)(F)F (stereo not drawn) | 
2 | 5.86 |  |  | O=C1CCCC2=C1C(c1ccc(-c3ccccc3)cc1)C1=C(O)CCCC1=N2 (stereo not drawn) | 
3 | 6.29 |  |  | O=[N+]([O-])c1cccc(C2C3=C(CCCC3)N=C3CCCC(O)=C32)c1 (stereo not drawn) | 
4 | 6.34 |  |  | O=C1CCCC2=C1C(c1ccc(F)c(Cl)c1)C1=C(O)CCCC1=N2 (stereo not drawn) | 
5 | 6.18 |  |  | CC1=CC(c2cccc([N+](=O)[O-])c2)C2=C(O)CCCC2=N1 (stereo not drawn) | 
6 | 6.80 | 8.05 |  | O=C1CCCC2=C1C(c1cc([N+](=O)[O-])cs1)C1=C(O)CCCC1=N2 (stereo not drawn) | 
7 | 5.35 | 7.00 | 4.32 | O=C1CCCC2=C1C(c1cccc([N+](=O)[O-])c1)C1=C(O)CCCC1=N2 (stereo not drawn) | 30.7
8 | < 4.52 |  |  | COC(=O)C1=C(C)NC(C)=C(C(=O)OCCCN2CCC(c3ccccc3)(c3ccccc3)CC2)[C@@H]1c1cccc([N+](=O)[O-])c1 [DEXNIGULDIPINE] | 
9 | < 4.52 |  |  | COC(=O)C1=C(C)NC(C)=C(C(=O)OCCCN2CCC(c3ccccc3)(c3ccccc3)CC2)[C@H]1c1cccc([N+](=O)[O-])c1 [NIGULDIPINE] | 
